How the values were obtained:
[1] = biological target: Multidrug resistance-associated protein 1 (Homo sapiens, UniProt P33527); assay: TP_TRANSPORTER: decrease in intracellular accumulation in HL60 and HL60/ADM cells; type: functional, cell-based
[2] = biological target: P-glycoprotein 1 and 3 (MDR1a/MDR1b) (Mus musculus, UniProt P21447+P06795); assay: TP_TRANSPORTER: increase in brain concentration in mdr1a/1b(-/-) mouse; type: functional, organism-based; settings: in vivo

Multidrug resistance-associated protein 1, sequence (P33527 whole entry): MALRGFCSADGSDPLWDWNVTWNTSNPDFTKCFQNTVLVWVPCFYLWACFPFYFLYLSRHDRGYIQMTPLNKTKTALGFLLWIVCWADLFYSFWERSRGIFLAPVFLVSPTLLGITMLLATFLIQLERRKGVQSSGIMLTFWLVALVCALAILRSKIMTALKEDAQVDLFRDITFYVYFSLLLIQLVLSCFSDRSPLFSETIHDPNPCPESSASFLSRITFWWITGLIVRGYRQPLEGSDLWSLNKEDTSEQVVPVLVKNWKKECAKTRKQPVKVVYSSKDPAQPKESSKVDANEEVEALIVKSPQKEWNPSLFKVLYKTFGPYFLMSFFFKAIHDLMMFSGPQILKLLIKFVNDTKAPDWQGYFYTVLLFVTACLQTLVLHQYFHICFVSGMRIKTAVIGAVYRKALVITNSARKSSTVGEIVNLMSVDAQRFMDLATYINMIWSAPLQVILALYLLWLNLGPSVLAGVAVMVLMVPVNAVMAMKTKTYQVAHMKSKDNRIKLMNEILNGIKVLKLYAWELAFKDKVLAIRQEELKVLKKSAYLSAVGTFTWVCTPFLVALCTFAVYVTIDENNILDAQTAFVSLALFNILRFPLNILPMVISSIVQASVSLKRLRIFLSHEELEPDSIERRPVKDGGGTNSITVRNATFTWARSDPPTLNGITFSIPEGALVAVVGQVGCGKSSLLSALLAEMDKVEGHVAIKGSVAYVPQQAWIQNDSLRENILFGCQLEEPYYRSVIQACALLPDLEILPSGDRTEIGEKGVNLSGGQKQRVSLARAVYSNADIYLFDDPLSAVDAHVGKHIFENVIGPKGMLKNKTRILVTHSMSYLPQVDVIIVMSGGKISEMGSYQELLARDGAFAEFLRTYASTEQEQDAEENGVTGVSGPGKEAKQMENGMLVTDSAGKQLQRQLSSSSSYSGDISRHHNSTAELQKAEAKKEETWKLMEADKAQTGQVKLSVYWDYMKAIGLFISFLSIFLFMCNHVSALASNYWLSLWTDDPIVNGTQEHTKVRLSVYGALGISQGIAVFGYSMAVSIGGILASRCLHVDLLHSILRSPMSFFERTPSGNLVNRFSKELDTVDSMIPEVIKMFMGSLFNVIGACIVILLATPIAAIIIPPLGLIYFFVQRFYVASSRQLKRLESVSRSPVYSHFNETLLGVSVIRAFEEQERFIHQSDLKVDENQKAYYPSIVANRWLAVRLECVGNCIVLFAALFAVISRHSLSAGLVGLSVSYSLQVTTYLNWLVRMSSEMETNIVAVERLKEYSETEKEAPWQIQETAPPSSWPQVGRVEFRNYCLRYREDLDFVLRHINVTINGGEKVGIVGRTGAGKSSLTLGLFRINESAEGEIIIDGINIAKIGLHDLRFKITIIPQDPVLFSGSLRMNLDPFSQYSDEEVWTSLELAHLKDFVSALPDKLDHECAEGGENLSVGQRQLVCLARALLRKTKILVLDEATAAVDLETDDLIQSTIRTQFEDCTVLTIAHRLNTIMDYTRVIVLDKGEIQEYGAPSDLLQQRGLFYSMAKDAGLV

## Cc1c(F)c(N2CCNC(C)C2)cc2c1c(=O)c(C(=O)O)cn2C1CC1 (configuration not stated) [GREPAFLOXACIN]
[1]
  Activity: substrate [+]

## C[C@@H]1CN(c2c(F)c(N)c3c(=O)c(C(=O)O)cn(C4CC4)c3c2F)C[C@H](C)N1 [SPARFLOXACIN]
[2]
  Activity: substrate [+]

— ChEMBL document CHEMBL2074572, “Limited distribution of new quinolone antibacterial agents into brain caused by multiple efflux transporters at the blood-brain barrier” (J Pharmacol Exp Ther, 2000)
